Entries after “also recorded” stand apart in the source; their conditions may differ.
Key:
[1] = system: RNA polymerase II phosphorylated at Ser 5 (CTD); assay: Immunofluorescence of RNA pol II-S5P at TEAD puncta in H1299 cells; format: cell-based; conditions: H1299 cells co-expressing YAP5SA, TEAD4-mTagBFP, mNeoGreen-SRC1; 20 μM
Description: FIG. 7 M illustrates immunofluorescence staining with anti-H3K27ac (red,top) and anti-RNA pol II-S5P (red, bottom) in H1299 cells co-expressing YAP5SA, TEAD4-mTagBFP(blue) and mNeoGreen-SRC1(green) treated with 20 μM EVG. EVG impaired the SRC-1 LLPS. Transcription active markerH3K27ac and active RNA polymerase II phosphorylated at Ser 5 of CTD were not enriched in SRC-1 condensates. Scale bar, 5 μm.
Cells were fixed with 4% PFA for 15 minutes at room temperature. Cells were subsequently washed with PBS (3×3 min) and blocked in PBS/BSA (3%)/Triton X-100 (0.3%) at room temperature for 60 minutes. Cells were rinsed in PBS and incubated with anti-H3K27ac (ab4729, Abcam, 1:100), anti-RNA Pol II-S5P antibody (#04-1572, Millipore, 1:200) in PBS/BSA (1%) overnight at 4° C. Cells were washed with PBST (1×PBS+Tween20 0.2%, 3×5 min) and incubated with the secondary antibody for 1 hours at room temperature. After washing with PBST(3×5 min), cells were stained with DAPI.

BEAS-2B cell colonies = assay: BEAS-2B colonies co-expressing SRC-1 and YAP; format: cell-based, human; conditions: SRC-1 and YAP co-expressed BEAS-2B cell colonies
Excerpt: FIG. 7X illustrates the colonies of BEAS-2B cells overexpressing with both YAP and SRC-1 treated w/o EVG.
To explore whether SRC-1 and YAP cooperate in driving tumorigenesis, normal human lung bronchial epithelium cells (BEAS-2B) was transformed with YAP and/or SRC-1.

YAP [2] = assay: YAP reporter cell-based screen of FDA-approved drugs (luciferase, qPCR validation); conditions: YAP reporter cell-based screen in a library of FDA-approved drugs
Excerpt: FIG. 7B illustrates high-throughput screening results. 449 FDA-approved compounds were screened and evaluated by the z-factor of cell viability and luciferase activity (Blue dots: screened compounds; red dots: positive compounds). The screening criteria is luciferase z-factor <−4 and cell viability >−4. (Positive compound, PC: Fedratinib)
FIG. 7C illustrates qPCR analysis examining the expression of YAP-targeted CTGF and CYR61 was used to validate candidate positive compounds from the screening. Error bars show mean±s.e.m. (n=2).
FIG. 7D illustrates the qPCR analysis of YAP target genes in SF268 cells treated with DMSO or 20 µM EVG for 24 h. Error bars show mean±s.e.m. (n=3).
YAP binding sites were cloned into the NheI and HindIII sites of the pGL4.76 basic vector (Promega) containing heat shock basal promoter. Luciferase activity was measured using the Renilla-Glo® Luciferase Assay System (Promega). Cell viability was measured using CellTiter-Glo® One Solution Assay (Promega). Relative luciferase activity=luciferase activity/cell viability.
Cells were treated with compounds for indicated periods, then total RNAs were extracted with TRIzol™ Reagent (15596018, Invitrogen) and reverse-transcripted using the High efficient cDNA synthesis master mix (FSQ-301, TOYOBO). Quantitative RT-PCR was performed with […] SYBR® Premix Ex Taq™ (RR420, Takara). […]

SRC-1 condensates = biological target: T1, SRC-1 condensates (Homo sapiens, UniProt Q15788); assay: Live cell imaging of SRC-1 condensates; format: cell-based
T1 construct: expressed in transfected cells; host or cells: SF268
Description: Cells were grown on 24-well glass bottom plate (Cellvis, P24-1.5H-N) and images were taken with the Leica TCS SP8 confocal microscopy system using a 100× oil objective (NA=1.4). Cells were imaged on a heated stage(37° C.) and supplemented with warmed (37° C.) humidified air.
For compounds treatment assay, SF268 cells were co-transfected with YAP5SA, TEAD4-mTagBFP2 and mNeoGreen-SRC1. YAP variant YAP5SA which is insensitive to the upstream Hippo pathway, sequestered YAP in nucleus. To circumvent the limitations brought by red fluorescent proteins, TEAD condensates which have been reported to depend on YAP, were used to characterize YAP/TEAD transcriptional condensates. Six hours after transfection, SF268 cells were seeded on 24-well glass bottom plate (Cellvis, P24-1.5H-N) and compounds were added two hours later. Cells were imaged every 30 mins after EVG or other compounds were added.
Cells were grown on 24-well glass bottom plate (Cellvis, P24-1.5H-N) and images were taken with the Leica TCS SP8 confocal microscopy system using a 100× oil objective (NA=1.4). Cells were imaged on a heated stage (37° C.) and supplemented with warmed (37° C.) humidified air. […]
Data was analyzed by images collected from 100 representative fields in each group. The spots quantification was performed based on the number and intensity of the spots through green (mNeoGreen-SRC1) and blue (TEAD4-mTagBFP2) channel. […]

[3] = system: SRC-1's binding with YAP and TEAD; assay: FLAG pulldown assay with recombinant proteins; conditions: in vitro pulldown, concentrations up to 400 μM
Description: FIG. 7N illustrates purified Flag-SRC-1 protein was mixed with YAP and/or TEAD4 in the presence of increasing concentrations of EVG and was subjected to three independent pull-downs using anti-flag beads.
Three independent pull down assays were performed to detect the direct binding between SRC1 and YAP/TEAD4. Purified FLAG-SRC1 truncated proteins were incubated with YAP, TEAD4 and YAP plus TEAD4 respectively, and further subjected to pull down assays by ANTI-FLAG® M2 Affinity Gel (A2220, Sigma-Aldrich). Elvitegravir was co-incubated with the mixtures at increasing concentrations (0, 50, 200, 400 μM) as indicated. Complexes were washed in PBS buffer and proteins were eluted using 2×SDS loading buffer.

YAP [4] = assay: Anti-YAP immunofluorescence staining in A549 cells (YAP nuclear translocation); format: cell-based; conditions: anti-YAP antibody and DAPI
Excerpt: FIG. 7H illustrates A549 cells treated with DMSO, EVG or PC(Positive compound) were stained with anti-YAP antibody and DAPI. […] Scale bar represents 40 μm.

T1 sequence (Q15788 whole entry): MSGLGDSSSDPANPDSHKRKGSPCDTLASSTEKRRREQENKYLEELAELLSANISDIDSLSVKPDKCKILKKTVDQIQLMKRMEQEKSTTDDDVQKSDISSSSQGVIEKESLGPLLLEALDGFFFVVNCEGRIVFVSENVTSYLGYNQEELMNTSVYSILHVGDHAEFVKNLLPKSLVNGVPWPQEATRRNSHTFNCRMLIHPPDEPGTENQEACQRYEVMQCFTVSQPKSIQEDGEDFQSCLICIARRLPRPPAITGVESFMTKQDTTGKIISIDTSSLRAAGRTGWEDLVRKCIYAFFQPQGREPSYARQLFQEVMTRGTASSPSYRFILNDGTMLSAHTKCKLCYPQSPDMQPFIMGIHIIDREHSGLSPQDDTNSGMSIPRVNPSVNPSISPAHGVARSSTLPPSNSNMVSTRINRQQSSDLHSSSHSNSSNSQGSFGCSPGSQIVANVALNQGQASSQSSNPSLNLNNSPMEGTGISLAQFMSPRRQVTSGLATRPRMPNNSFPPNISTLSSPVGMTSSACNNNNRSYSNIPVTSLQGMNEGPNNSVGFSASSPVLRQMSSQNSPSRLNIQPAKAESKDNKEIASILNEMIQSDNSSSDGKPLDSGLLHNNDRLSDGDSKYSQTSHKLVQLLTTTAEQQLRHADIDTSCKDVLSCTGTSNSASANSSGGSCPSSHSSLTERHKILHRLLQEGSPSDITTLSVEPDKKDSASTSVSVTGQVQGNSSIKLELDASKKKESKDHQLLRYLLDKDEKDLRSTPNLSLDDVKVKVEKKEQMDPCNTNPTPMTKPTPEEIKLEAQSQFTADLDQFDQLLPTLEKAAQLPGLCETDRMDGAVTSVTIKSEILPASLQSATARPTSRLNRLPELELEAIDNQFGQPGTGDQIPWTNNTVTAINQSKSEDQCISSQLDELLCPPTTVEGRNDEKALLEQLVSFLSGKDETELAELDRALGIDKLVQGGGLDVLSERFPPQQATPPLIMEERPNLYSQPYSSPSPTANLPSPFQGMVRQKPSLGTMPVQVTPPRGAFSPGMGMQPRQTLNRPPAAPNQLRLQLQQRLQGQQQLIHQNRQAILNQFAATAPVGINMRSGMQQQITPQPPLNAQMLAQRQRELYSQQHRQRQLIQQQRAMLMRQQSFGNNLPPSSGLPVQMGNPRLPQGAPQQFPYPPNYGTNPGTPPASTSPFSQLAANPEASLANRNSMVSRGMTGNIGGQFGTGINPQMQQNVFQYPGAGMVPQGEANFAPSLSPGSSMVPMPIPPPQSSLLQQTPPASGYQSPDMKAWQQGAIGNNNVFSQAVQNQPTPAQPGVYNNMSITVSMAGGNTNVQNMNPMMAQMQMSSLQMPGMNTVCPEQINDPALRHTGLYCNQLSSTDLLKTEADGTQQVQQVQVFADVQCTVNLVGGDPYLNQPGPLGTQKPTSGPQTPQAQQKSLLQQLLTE

COc1cc2c(cc1Cc1cccc(Cl)c1F)c(=O)c(C(=O)O)cn2[C@H](CO)C(C)C [EVG, 6-[(3-chloro-2-fluorophenyl)methyl]-1-[(2S)-1-hydroxy-3-methylbutan-2-yl]-7-methoxy-4-oxoquinoline-3-carboxylic acid]
RNA polymerase II phosphorylated at Ser 5 (CTD) at TEAD puncta [1]: no effect | migratory activity at the outer colony border (BEAS-2B cell colonies): dramatically inhibited | YAP activity (YAP [2]): suppress YAP activity | SRC-1 condensates / SRC1 phase separation (LLPS) (SRC-1 condensates; H1299 cells co-transfected with YAP5SA, TEAD4-mTagBFP, mNeoGreen-SRC1, 20 μM): impaired; also recorded: selectively disrupted | nuclear SRC-1 puncta formation (SRC-1 condensates; H1299 cells expressing either mNeoGreen or mScarlet labeled SRC-1, time course): impaired the LLPS of SRC-1 in time-dependent manner; also recorded: suppressed | SRC-1's binding with YAP and TEAD [3]: did not affect | YAP nuclear translocation (YAP [4]): remained in nucleus; also recorded: unaffected
